Literature values, collected in patent publication US8334298B2, “Treatment or prevention of ovarian hyperstimulation syndrome (OHSS) using a dopamine agonist” (Ferring International Center S.A., priority 2005, dated 2012).

Details: oncolytic models; cited from earlier work

Structure (SMILES): Cc1cc(C)c(/C=C2\C(=O)Nc3ccccc32)[nH]1 [SU5416]
- toxic effects: serious toxic effects
